Assay results from patent EP4620955A1, “MC4R ANTAGONIST COMPOUND, PHARMACEUTICAL COMPOSITION AND PHARMACEUTICAL USE THEREOF” (Changchun Genescience Pharmaceutical Co., Ltd., priority 2022, dated 2024).
Where two headings read alike, the source gives them in different places.

Legend:
[1] = biological target: T1, MC4R (Homo sapiens, UniProt P32245); test: Assay of MC4R antagonist activity in cells in vitro (cAMP assay, Melanotan I stimulation); assay type: cell-based; conditions: flipin-293-MC4 cell line, Melanotan I as agonist
T1 construct: expressed in transfected cells; host or cells: flipin-293-MC4 (Flp-In 293 host, hygromycin selection)
T1 sequence (P32245 whole entry): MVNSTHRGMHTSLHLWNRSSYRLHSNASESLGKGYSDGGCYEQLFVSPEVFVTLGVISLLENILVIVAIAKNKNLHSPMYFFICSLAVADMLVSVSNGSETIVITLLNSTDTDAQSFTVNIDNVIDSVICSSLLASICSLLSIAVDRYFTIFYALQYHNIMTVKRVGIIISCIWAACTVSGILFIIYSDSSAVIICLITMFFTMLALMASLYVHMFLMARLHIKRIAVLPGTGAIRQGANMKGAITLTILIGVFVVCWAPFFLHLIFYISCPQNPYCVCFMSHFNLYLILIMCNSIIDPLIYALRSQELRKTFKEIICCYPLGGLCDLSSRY
Summary of the method: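 flipin-293-MC4 cells in HBSS, 20 mM HEPES, 0.1% BSA, 500 µM IBMX were preincubated with compound for 10 min at 37°C, then stimulated with Melanotan I for 30 min at 37°C. cAMP measured by TR-FRET (Eu cAMP tracer/ULight anti-cAMP, 615/665 nm). Percent inhibition versus controls fitted to a four-parameter curve for IC50.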

[2] = Pharmacokinetic study on the tested compound in SD male rats; assay type: in vivo; conditions: IV 1 mpk/PO 2 mpk; for AUC / Cmax / clearance / half-life: Sprague-Dawley (SD), rat, plasma
Experimental: On the day of administration, the tested compound was prepared with 5% DMSO + 5% Solutol + 90% Saline as a solvent into a solution for administration for use.
The solution for administration was administered to an intravenous injection IV group at a dose of 1 mg/kg in a concentration of 0.2 mg/mL. The solution for administration was administered to an oral gavage PO group at a dose of 2 mg/kg in a concentration of 0.2 mg/mL. The animals in the PO group were required to fast overnight in advance, drink water freely, and be fed 4 hours after administration. The IV group was not required to fast.
The animals were weighed before administration. On the day of administration, the solution was IV/PO-administered once in an administration amount calculated based on the weight. In the IV group, blood was collected from veins at 0.083 h, 0.25 h, 0.5 h, 1.0 h, 2.0 h, 4.0 h, 8.0 h, and 24 h after administration. In the PO group, blood was collected from veins at 0.25 h, 0.5 h, 1.0 h, 2.0 h, 4.0 h, 6.0 h, 8.0 h, and 24 h after administration. The amount of blood collected was about 0.20 mL. K2-EDTA was used in blood collection tubes as an anticoagulant. The collected blood sample was centrifuged (centrifugation conditions: 6800 g, 6 min, 2°C to 8°C) within 1 h to obtain plasma. The to-be-tested sample was stored in a refrigerator at -80°C before analysis.
The concentration of the tested compound in the plasma of the SD male rats was detected by the validated LC-MS/MS method.

[3] = biological target: T2, CYP 3A4M (Homo sapiens, UniProt P08684); test: Inhibition of P450 enzyme (CYP 3A4, midazolam as substrate) in human liver microsomes; assay type: in vitro ADME
T2 construct: from tissue; host or cells: human liver microsomes (HLM)
T2 sequence (P08684 whole entry): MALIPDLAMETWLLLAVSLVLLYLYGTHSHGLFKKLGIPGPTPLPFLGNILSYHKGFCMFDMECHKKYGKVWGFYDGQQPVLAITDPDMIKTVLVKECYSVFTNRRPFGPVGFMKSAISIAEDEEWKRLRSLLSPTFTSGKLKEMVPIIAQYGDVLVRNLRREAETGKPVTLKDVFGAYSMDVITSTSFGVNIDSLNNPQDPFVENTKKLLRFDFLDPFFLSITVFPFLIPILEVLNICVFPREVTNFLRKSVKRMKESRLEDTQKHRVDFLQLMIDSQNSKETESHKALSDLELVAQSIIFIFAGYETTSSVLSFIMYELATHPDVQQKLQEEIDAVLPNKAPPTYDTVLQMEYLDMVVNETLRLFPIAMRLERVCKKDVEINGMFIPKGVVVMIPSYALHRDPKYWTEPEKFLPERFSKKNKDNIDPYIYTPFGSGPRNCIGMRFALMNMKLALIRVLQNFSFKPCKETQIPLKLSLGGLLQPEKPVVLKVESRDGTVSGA
Experimental: The inhibitory effect of the tested compound on 3A4-M (with midazolam as a substrate) in human liver microsomes is evaluated in vitro to assess the safety of the compound.
In this study, the inhibition of CYP 3A4 enzyme in human liver microsomes by the tested compound was investigated using the human liver microsomal system and the cytochrome P450 enzyme probe substrate recommended by the FDA Guidance for In Vitro Drug Interaction Studies. The human liver microsomes were incubated separately with the tested compound of different concentrations (0 µM to 30.0 µM) and corresponding probe substrates. Then, the changes of activity of the CYP enzyme were determined, and the IC50 value was calculated, to evaluate the inhibitory potential of the tested compound on the CYP 3A4 enzyme.
Test group (TG): The human liver microsomes were incubated separately with the tested compound of different concentrations, NADPH (in a final concentration of 2.00 mM), and probe substrates (Table 4) of different enzymes in subfamilies for 5 min.
Positive control group (PC): The human liver microsomes were incubated separately with an inhibitor (Table 4), NADPH (in a final concentration of 2.00 mM), and a probe substrate (Table 4) of 3A4M for 5 min. Table 4 Probe substrate of each enzyme in the subfamily, inhibitor, and incubation system
At the end of the incubation, the reaction was terminated with a stop solution.
8 µL of 30 mM test sample was transferred to 12 µL of DMSO to give a 12 mM test sample intermediate solution, and then diluted with DMSO to give test sample working solutions in different concentrations (12 mM, 4 mM, 1.33 mM, 0.433 mM, 0.147 mM, 0.049 mM, and 0.0164 mM).
To 12 µL of DMSO was added 8 µL of 2.5 mM CYP3A4 inhibitor ketoconazole stock solution to give a 1 mM positive control inhibitor working solution.
(§1) 199 µL of 0.2 mg/mL HLM and 1 µL of test sample working solution (12 mM, 4 mM, 1.33 mM, 0.433 mM, 0.147 mM, 0.049 mM, and 0.0164 mM) were mixed uniformly. 30 µL of this liver microsome solution was added to a 96-well plate, and then 10 µL of substrate working solution (320 µM testosterone or 20 µM midazolam) was added. This preparation process was carried out in duplicate. After pre-incubation at 37°C for 5 min, 15 µL of 8 mM NADPH solution pre-warmed at 37°C for 5-10 min was added to initiate the reaction. After incubation in the 96-well plate at 37°C for 5 min, 180 µL of acetonitrile/methanol (ACN:MeOH = 1:1) solution containing the internal standard (IS) was added to terminate the reaction. The 96-well plate was shaken at 600 rpm for 5-10 min, and then centrifuged at 6000 rpm for 15 min. 80 µL of supernatant was taken and added to 120 µL of ultrapure water, shaken uniformly, and then detected by LC-MS/MS.
as §1, with “1 mM positive control inhibitor (ketoconazole)” for “test sample”, “solution” for “solution (12 mM, 4 mM, 1.33 mM, 0.433 mM, 0.147 mM, 0.049 mM, and 0.0164 mM)”, “(20” for “(320 µM testosterone or 20”, “ACN:MeOH (1:1)” for “acetonitrile/methanol (ACN:MeOH = 1:1)”, “IS” for “the internal standard (IS)”, “LC-MS/MS. […]” for “LC-MS/MS.”

[4] = human liver microsomes 0.100 mg/mL, midazolam 5.00 µM as substrate, 5 min incubation, read-out: CYP 3A4M IC50

Structure (SMILES): COc1cc([C@@H](C)C(=O)N2CC[C@H](Nc3ccc(-c4ncccn4)c(C)n3)C2)c(Cl)cn1 [Compound 083-1, (R)-2-(5-chloro-2-methoxypyridine-4-yl)-1-((S)-3-((6-methyl-5-(pyrimidine-2-yl)pyridine-2-yl)amino)pyrrolidine-1-yl)propane-1-one]
- IC50 [1]: 1.82 nM
- F [2]: 31.3%
- AUC [2]: 240 ng·h/mL
- Cmax [2]: 156 ng/mL
- clearance [2]: 43.7 mL/min/kg
- half-life [2]: 39 min
- IC50 [3, 4]: 5800 nM

Structure (SMILES): COc1cc([C@@H](C)C(=O)N2CC[C@H](Nc3ccc(-c4nccc(C#N)n4)c(C)n3)C2)c(F)cn1 [Compound 111, 2-(6-(((S)-1-((R)-2-(5-fluoro-2-methoxypyridine-4-yl)propionyl)pyrrolidine-3-yl)amino)-2-methylpyridine-3-yl)pyrimidine-4-nitrile]
- IC50 [1]: 3.4 nM
- IC50 [3, 4]: 2940 nM

Structure (SMILES): COc1cc([C@@H](C)C(=O)N2C[C@@H](Nc3ccc(-c4ncccn4)c(C)n3)C3(CC3)C2)c(Cl)cn1 [Compound 114, (R)-2-(5-chloro-2-methoxypyridine-4-yl)-1-((S)-7-((6-methyl-5-(pyrimidine-2-yl)pyridine-2-yl)amino)-5-azaspiro[2.4]heptane-5-yl)propan-1-one]
- IC50 [1]: 2.45 nM
- F [2]: 54.0%
- AUC [2]: 450 ng·h/mL
- Cmax [2]: 197 ng/mL
- clearance [2]: 39.9 mL/min/kg
- half-life [2]: 58.8 min
- IC50 [3, 4]: 29500 nM

Structure (SMILES): COc1cc([C@@H](C)C(=O)N2C[C@@H](Nc3ccc(-c4nccc(C#N)n4)c(C)n3)C3(CC3)C2)c(F)cn1 [Compound 116, 2-(6-(((S)-5-((R)-2-(5-fluoro-2-methoxypyridine-4-yl)propionyl)-5-azaspiro[2.4]heptane-7-yl)amino)-2-methylpyridine-3-yl)pyrimidine-4-nitrile]
- IC50 [1]: 2.15 nM
- IC50 [3, 4]: > 30000 nM

Structure (SMILES): COc1cc([C@@H](C)C(=O)N2CC[C@H](Nc3ccc(-c4ncccn4)c(C)n3)C2)c(Br)cn1 [Compound 200, (R)-2-(5-bromo-2-methoxypyridine-4-yl)-1-((S)-3-((6-methyl-5-(pyrimidine-2-yl)pyridine-2-yl)amino)pyrrolidine-1-yl)propan-1-one]
- IC50 [1]: 0.98 nM
- IC50 [3, 4]: 3750 nM

Structure (SMILES): COc1cc([C@@H](C)C(=O)N2C[C@@H](Nc3ccc(-c4ncccn4)c(C)n3)C3(CC3)C2)c(Br)cn1 [Compound 201, (R)-2-(5-bromo-2-methoxypyridine-4-yl)-1-((S)-7-((6-methyl-5-(pyrimidine-2-yl)pyridine-2-yl)amino)-5-azaspiro[2.4]hept-5-yl)propan-1-one]
- IC50 [1]: 1.41 nM
- IC50 [3]: > 30000 nM
